Target: human NOP receptor (Homo sapiens, UniProt P41146)
Test: Calcium mobilization assay in CHO cells stably coexpressing the NOP receptor and the Gαqi5 chimeric G protein
Details: CHOhNOP + Gαqi5 cells; Fluo-4 AM, FlexStation II, 37 °C; four-parameter logistic fit; mean of 5 or at least 6 experiments in duplicate
Experimental: Drugs and reagents: The reagents used were purchased from Sigma-Aldrich (St. Louis, MO, USA) and Thermo Fisher Scientific (Waltham, MA, USA). […] Concentrated solutions of ligands were made in distilled water (1 mM) and kept at −20 °C until use. Successive dilutions of ligands were made in Hank’s Balanced Salt Solution (HBSS) and HEPES buffer (containing 0.005% Bovine Serum Albumine (BSA)).
Cell Culture: Chinese Hamster Ovary (CHO) cells stably coexpressing the NOP opioid receptors and the Gαqi5 protein were used. […]
Calcium Mobilization Assay: Calcium mobilization studies were performed using the automated fluorometer microplate reader FlexStation II (Molecular Devices, Sunnyvale, CA, USA), which was employed to detect changes in fluorescence intensity. […] After placing both plates (cell culture and compound plate) into the fluorometric imaging plate reader FlexStation II, fluorescence changes were measured. […] Maximum change in fluorescence, expressed as percent over the baseline fluorescence, was used to determine agonist response.
Data analysis and terminology: All data were analyzed using Graph Pad Prism 6.0 (La Jolla, CA, USA). […] Data were expressed as mean ± sem of 5 experiments performed in duplicate. Agonist effects were expressed as the maximum change in percent over the baseline fluorescence. Baseline fluorescence was measured in wells treated with vehicles. […]

Chain of human NOP receptor (P41146 whole entry): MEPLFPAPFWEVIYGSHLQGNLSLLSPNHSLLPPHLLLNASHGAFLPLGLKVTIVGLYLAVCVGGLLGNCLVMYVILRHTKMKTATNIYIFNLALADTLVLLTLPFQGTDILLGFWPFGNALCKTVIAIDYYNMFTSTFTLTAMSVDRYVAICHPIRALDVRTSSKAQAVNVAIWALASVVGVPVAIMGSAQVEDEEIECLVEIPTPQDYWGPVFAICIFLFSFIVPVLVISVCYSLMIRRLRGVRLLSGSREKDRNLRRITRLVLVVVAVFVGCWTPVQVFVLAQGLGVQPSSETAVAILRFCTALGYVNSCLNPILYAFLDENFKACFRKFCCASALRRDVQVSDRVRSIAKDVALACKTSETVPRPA

[Dmt^1]N/OFQ(1-13)-NH2
pEC50 (CL95%): 8.35 (7.94–8.77)

Source: publication PMC10675785, “(L)-Monomethyl Tyrosine (Mmt): New Synthetic Strategy via Bulky ‘Forced-Traceless’ Regioselective Pd-Catalyzed C(sp^2)–H Activation” (Pharmaceuticals, 2023)
